Patent US20070249620A1, “Urea Derivative” (priority 2004, published 2007)

How the values were obtained:
[1] = target: T1, mouse DGAT1 (Mus musculus, UniProt Q9Z2A7); test: DGAT1 inhibitory effect test (microsome fraction, [14C]-oleoyl-CoA, triglyceride radioactivity by TLC); assay type: biochemical; conditions: 0.5 h; concentration of the test compound 0.1 μg/ml; mouse DGAT1 microsomes, 23° C., 30 minutes; read-out: Inhibitory ratio
T1 construct: made in house; host or cells: insect cells (High Five, Sf9, Sf21, etc.), baculovirus expression system (Invitrogen)
T1 sequence (Q9Z2A7 1-498): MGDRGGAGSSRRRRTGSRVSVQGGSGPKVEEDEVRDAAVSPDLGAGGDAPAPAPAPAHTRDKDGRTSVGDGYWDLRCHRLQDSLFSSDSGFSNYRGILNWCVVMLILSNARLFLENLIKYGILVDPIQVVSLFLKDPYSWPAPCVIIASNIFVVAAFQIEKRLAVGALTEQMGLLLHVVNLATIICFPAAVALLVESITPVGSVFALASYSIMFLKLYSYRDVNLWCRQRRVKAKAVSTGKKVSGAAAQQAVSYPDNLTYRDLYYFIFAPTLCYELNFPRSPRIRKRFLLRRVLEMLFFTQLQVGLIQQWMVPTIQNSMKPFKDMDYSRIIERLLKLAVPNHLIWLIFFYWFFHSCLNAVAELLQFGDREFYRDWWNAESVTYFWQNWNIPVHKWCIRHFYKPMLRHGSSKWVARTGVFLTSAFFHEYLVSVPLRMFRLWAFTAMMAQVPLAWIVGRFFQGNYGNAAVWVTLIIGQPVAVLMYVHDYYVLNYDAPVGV
How it was run: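 Inhibition was scored from radiolabelled triglyceride separated by TLC, relative to vehicle and net of a 0-min background. The reaction ran for 30 min at room temperature (23 °C) in Tris-HCl pH 8.0 with MgCl2, BSA and Triton X-100. Substrates were 30 μM [14C]-oleoyl-CoA and 0.5 mM dioleoylglycerol, with mouse DGAT1 microsomes from baculovirus-infected insect cells as enzyme.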

**Q.** With `COc1ccc(C)cc1NC(=O)Nc1ccc(N2CCN(C(=O)Nc3ccc(OCCO)cc3F)CC2)cc1` [Example 210, 4-{4-[3-(2-methoxy-5-methyl-phenyl)-ureido]-phenyl}-piperazine-1-carboxylic acid [2-fluoro-4-(2-hydroxy-ethoxy)-phenyl]-amide] as the molecule, how does the inhibition at 0.1 µg/mL [1] read?
**A.** ≥ 50%

**Q.** And the melting point?
**A.** 214 to 215 °C

**Q.** With `O=C(Nc1ccc(N2CCN(C(=O)Nc3ccc(OCCO)cc3C(F)(F)F)CC2)cc1)Nc1ccccc1F` [Example 211, 4-{4-[3-(2-fluoro-phenyl)-ureido]-phenyl}-piperazine-1-carboxylic acid [4-(2-hydroxy-ethoxy)-2-trifluoromethyl-phenyl]-amide] as the molecule, how does the inhibition at 0.1 µg/mL [1] read?
**A.** ≥ 50%

**Q.** What about the melting point of the same molecule?
**A.** 219 to 220 °C

**Q.** What does the source list for `COc1ccc(F)cc1NC(=O)Nc1ccc(N2CCN(C(=O)Nc3ccc(OCCO)cc3C(F)(F)F)CC2)cc1` [Example 212, 4-{4-[3-(5-fluoro-2-methoxy-phenyl)-ureido]-phenyl}-piperazine-1-carboxylic acid [4-(2-hydroxy-ethoxy)-2-trifluoromethyl-phenyl]-amide]?
**A.** inhibition at 0.1 µg/mL [1]: ≥ 50%; melting point: 140 to 141 °C

**Q.** Which results are given for `Cc1cnc(NC(=O)Nc2ccc(N3CCN(C(=O)Nc4ccc(OCCO)cc4C(F)(F)F)CC3)cc2)s1` [Example 213, 4-{4-[3-(5-methyl-thiazol-2-yl)-ureido]-phenyl}-piperazine-1-carboxylic acid [4-(2-hydroxy-ethoxy)-2-trifluoromethyl-phenyl]-amide]?
**A.** inhibition at 0.1 µg/mL [1]: ≥ 50%; melting point: 118 to 120 °C

**Q.** Which results are given for `COc1cccc(NC(=O)Nc2ccc(N3CCN(C(=O)Nc4ccc(OCCO)cc4C(F)(F)F)CC3)cc2)c1` [Example 214, 4-{4-[3-(3-methoxy-phenyl)-ureido]-phenyl}-piperazine-1-carboxylic acid [4-(2-hydroxy-ethoxy)-2-trifluoromethyl-phenyl]-amide]?
**A.** inhibition at 0.1 µg/mL [1]: ≥ 50%; melting point: 214 to 215 °C

**Q.** Which results are given for `CCOc1cccc(NC(=O)Nc2ccc(N3CCN(C(=O)Nc4ccc(OCCO)cc4C(F)(F)F)CC3)cc2)c1` [Example 215, 4-{4-[3-(3-ethoxy-phenyl)-ureido]-phenyl}-piperazine-1-carboxylic acid [4-(2-hydroxy-ethoxy)-2-trifluoromethyl-phenyl]-amide]?
**A.** inhibition at 0.1 µg/mL [1]: ≥ 50%; melting point: 108 to 110 °C

**Q.** With `COc1cc(NC(=O)Nc2ccc(N3CCN(C(=O)Nc4ccc(OCCO)cc4C(F)(F)F)CC3)cc2)cc(OC)c1` [Example 216, 4-{4-[3-(3,5-dimethoxy-phenyl)-ureido]-phenyl}-piperazine-1-carboxylic acid [4-(2-hydroxy-ethoxy)-2-trifluoromethyl-phenyl]-amide] as the molecule, how does the inhibition at 0.1 µg/mL [1] read?
**A.** ≥ 50%

**Q.** And the melting point?
**A.** 209 to 210 °C

**Q.** With `COc1ccccc1NC(=O)Nc1ccc(N2CCN(C(=O)Nc3ccc(OCCO)cc3C(F)(F)F)CC2)cc1` [Example 217, 4-{4-[3-(2-methoxy-phenyl)-ureido]-phenyl}-piperazine-1-carboxylic acid [4-(2-hydroxy-ethoxy)-2-trifluoromethyl-phenyl]-amide] as the molecule, how does the inhibition at 0.1 µg/mL [1] read?
**A.** ≥ 50%

**Q.** What about the melting point of the same molecule?
**A.** 118 to 120 °C

**Q.** For `COc1ccc(C)cc1NC(=O)Nc1ccc(N2CCCN(C(=O)Nc3ccc(OCCO)cc3C(F)(F)F)CC2)cc1` [Example 218, 4-{4-[3-(2-methoxy-5-methyl-phenyl)-ureido]-phenyl}-perhydro-1,4-diazepine-1-carboxylic acid [4-(2-hydroxy-ethoxy)-2-trifluoromethyl-phenyl]-amide], which inhibition at 0.1 µg/mL [1] is on record?
**A.** ≥ 50%

**Q.** What about the melting point of the same molecule?
**A.** 118 to 120 °C

**Q.** Which results are given for `COc1ccc(C)cc1NC(=O)Nc1ccc(N2CCN(C(=O)Nc3ccc(OCCO)cc3C)CC2)nc1` [Example 219, 4-{5-[3-(2-methoxy-5-methyl-phenyl)-ureido]-pyridin-2-yl}-piperazine-1-carboxylic acid [4-(2-hydroxy-ethoxy)-2-methyl-phenyl]-amide]?
**A.** inhibition at 0.1 µg/mL [1]: ≥ 50%; melting point: 189 to 190 °C

**Q.** Which inhibition at 0.1 µg/mL [1] does the source give for `COc1ccc(C)cc1NC(=O)Nc1ccc(N2CCN(C(=O)Nc3ccc(OCCO)cc3C(F)(F)F)CC2)nc1` [Example 220, 4-{5-[3-(2-methoxy-5-methyl-phenyl)-ureido]-pyridin-2-yl}-piperazine-1-carboxylic acid [4-(2-hydroxy-ethoxy)-2-trifluoromethyl-phenyl]-amide] here?
**A.** ≥ 50%

**Q.** What about the melting point of the same molecule?
**A.** 198 to 200 °C

**Q.** With `O=C(Nc1ccc(N2CCN(C(=O)Nc3ccc(OCCO)cc3C(F)(F)F)CC2)c(Cl)c1)Nc1ccccc1F` [Example 221, 4-{2-chloro-4-[3-(2-fluoro-phenyl)-ureido]-phenyl}-piperazine-1-carboxylic acid [4-(2-hydroxy-ethoxy)-2-trifluoromethyl-phenyl]-amide] as the molecule, how does the inhibition at 0.1 µg/mL [1] read?
**A.** ≥ 50%

**Q.** What about the melting point of the same molecule?
**A.** 199 to 200 °C

**Q.** With `O=C(Nc1ccc(N2CCN(C(=O)Nc3ccc(OCCO)cc3C(F)(F)F)CC2)nc1)Nc1ccccc1F` [Example 222, 4-{5-[3-(2-fluoro-phenyl)-ureido]-pyridin-2-yl}-piperazine-1-carboxylic acid [4-(2-hydroxy-ethoxy)-2-trifluoromethyl-phenyl]-amide] as the molecule, how does the inhibition at 0.1 µg/mL [1] read?
**A.** ≥ 50%

**Q.** What about the melting point of the same molecule?
**A.** 193 to 194 °C

**Q.** What does the source list for `COc1ccc(F)cc1NC(=O)Nc1ccc(N2CCN(C(=O)Nc3ccc(OCCO)cc3C(F)(F)F)CC2)nc1` [Example 223, 4-{5-[3-(5-fluoro-2-methoxy-phenyl)-ureido]-pyridin-2-yl}-piperazine-1-carboxylic acid [4-(2-hydroxy-ethoxy)-2-trifluoromethyl-phenyl]-amide]?
**A.** inhibition at 0.1 µg/mL [1]: ≥ 50%; melting point: 172 to 173 °C

**Q.** What does the source list for `CC(C)(C)c1csc(NC(=O)Nc2ccc(N3CCN(C(=O)Nc4ccc(OCCO)cc4C(F)(F)F)CC3)cc2)n1` [Example 224, 4-{4-[3-(4-tert-butyl-thiazol-2-yl)-ureido]-phenyl}-piperazine-1-carboxylic acid [4-(2-hydroxy-ethoxy)-2-trifluoromethyl-phenyl]-amide]?
**A.** inhibition at 0.1 µg/mL [1]: ≥ 50%; melting point: 130 to 132 °C

**Q.** Which inhibition at 0.1 µg/mL [1] does the source give for `Cc1nc(NC(=O)Nc2ccc(N3CCN(C(=O)Nc4ccc(OCCO)cc4C(F)(F)F)CC3)cc2)sc1C` [Example 225, 4-{4-[3-(4,5-dimethyl-thiazol-2-yl)-ureido]-phenyl}-piperazine-1-carboxylic acid [4-(2-hydroxy-ethoxy)-2-trifluoromethyl-phenyl]-amide] here?
**A.** ≥ 50%

**Q.** What about the melting point of the same molecule?
**A.** 166 to 167 °C

**Q.** For `COc1ccc(C)cc1NC(=O)Nc1ccc2c(c1)CCN(C(=O)Nc1ccc(OCCO)cc1C(F)(F)F)C2` [Example 226, 6-[3-(2-methoxy-5-methyl-phenyl)-ureido]-3,4-dihydro-1H-isoquinoline-2-carboxylic acid [4-(2-hydroxy-ethoxy)-2-trifluoromethyl-phenyl]-amide], which inhibition at 0.1 µg/mL [1] is on record?
**A.** ≥ 50%

**Q.** And the melting point?
**A.** 122 to 124 °C

**Q.** Which inhibition at 0.1 µg/mL [1] does the source give for `O=C(Nc1ccc2c(c1)CCN(C(=O)Nc1ccc(OCCO)cc1C(F)(F)F)C2)Nc1ccccc1F` [Example 227, 6-[3-(2-fluoro-phenyl)-ureido]-3,4-dihydro-1H-isoquinoline-2-carboxylic acid [4-(2-hydroxy-ethoxy)-2-trifluoromethyl-phenyl]-amide] here?
**A.** ≥ 50%

**Q.** And the melting point?
**A.** 162 to 164 °C

**Q.** What does the source list for `COc1ccc(C)cc1NC(=O)Nc1ccc(C2CCN(C(=O)Nc3c(C)cccc3Cl)CC2)cc1` [Example 228, 4-{4-[3-(2-methoxy-5-methyl-phenyl)-ureido]-phenyl}-piperidine-1-carboxylic acid (2-chloro-6-methyl-phenyl)-amide]?
**A.** inhibition at 0.1 µg/mL [1]: ≥ 50%; melting point: 234 to 236 °C

**Q.** With `O=C(Nc1ccc(C2=CCN(C(=O)Nc3ccc(OCCO)cc3C(F)(F)F)CC2)cc1)Nc1ccccc1F` [Example 229, 4-{4-[3-(2-fluoro-phenyl)-ureido]-phenyl}-3,6-dihydro-2H-pyridine-1-carboxylic acid [4-(2-hydroxy-ethoxy)-2-trifluoromethyl-phenyl]-amide] as the molecule, how does the inhibition at 0.1 µg/mL [1] read?
**A.** ≥ 50%

**Q.** What about the melting point of the same molecule?
**A.** 110 to 112 °C

**Q.** Which results are given for `COc1ccc(C)cc1NC(=O)Nc1ccc(C2=CCN(C(=O)Nc3ccc(OCCO)cc3C(F)(F)F)CC2)cc1` [Example 230, 4-{4-[3-(2-methoxy-5-methyl-phenyl)-ureido]-phenyl}-3,6-dihydro-2H-pyridine-1-carboxylic acid [4-(2-hydroxy-ethoxy)-2-trifluoromethyl-phenyl]-amide]?
**A.** inhibition at 0.1 µg/mL [1]: ≥ 50%; melting point: 150 to 153 °C

**Q.** With `COc1ccc(C)cc1NC(=O)Nc1ccc(N2CCN(C(=O)Nc3cc(OCCO)ccc3Cl)CC2)cc1` [Example 231, 4-{4-[3-(2-methoxy-5-methyl-phenyl)-ureido]-phenyl}-piperazine-1-carboxylic acid [2-chloro-5-(2-hydroxy-ethoxy)-phenyl]-amide] as the molecule, how does the inhibition at 0.1 µg/mL [1] read?
**A.** ≥ 50%

**Q.** What about the melting point of the same molecule?
**A.** 121 to 124 °C

**Q.** Which inhibition at 0.1 µg/mL [1] does the source give for `COc1ccccc1NC(=O)Nc1ccc(N2CCN(C(=O)Nc3cc(OCCO)ccc3Cl)CC2)cc1` [Example 232, 4-{4-[3-(2-methoxy-phenyl)-ureido]-phenyl}-piperazine-1-carboxylic acid [2-chloro-5-(2-hydroxy-ethoxy)-phenyl]-amide] here?
**A.** ≥ 50%

**Q.** What about the melting point of the same molecule?
**A.** 179 to 180 °C
